From the NIST ThermoML archive (doi:10.1021/acs.jced.6b00688)
Numbers after ± are expanded uncertainties.

Assay: xn = mol fraction of the nth substance listed
Conditions: 100 kPa, Liquid; for viscosity: Falling or rolling sphere viscometry; for mass density: Vibrating tube method

CCCCCCCO [heptan-1-ol] + CCCCCCCCCCCC
Conditions | mass density [kg/m3] | viscosity [mPa·s]
293.15 K, x2 = 0.0998 | 810.76 ± 1.6 | 5.346 ± 0.11
293.15 K, x2 = 0.2005 | 800.65 ± 1.6 | 4.224 ± 0.09
293.15 K, x2 = 0.302 | 791.28 ± 1.6 | 3.358 ± 0.071
293.15 K, x2 = 0.3991 | 783.4 ± 1.6 | 2.778 ± 0.059
293.15 K, x2 = 0.4989 | 776.02 ± 1.6 | 2.363 ± 0.05
293.15 K, x2 = 0.5994 | 769.4 ± 1.6 | 2.052 ± 0.044
293.15 K, x2 = 0.6975 | 763.54 ± 1.5 | 1.835 ± 0.039
293.15 K, x2 = 0.7959 | 758.2 ± 1.5 | 1.677 ± 0.036
293.15 K, x2 = 0.8984 | 753.19 ± 1.5 | 1.538 ± 0.033
298.15 K, x2 = 0.0998 | 807.24 ± 1.6 | 4.555 ± 0.097
298.15 K, x2 = 0.2005 | 797.07 ± 1.6 | 3.626 ± 0.077
298.15 K, x2 = 0.302 | 787.66 ± 1.6 | 2.917 ± 0.062
298.15 K, x2 = 0.3991 | 779.77 ± 1.6 | 2.444 ± 0.052
298.15 K, x2 = 0.4989 | 772.37 ± 1.6 | 2.098 ± 0.045
298.15 K, x2 = 0.5994 | 765.74 ± 1.5 | 1.837 ± 0.039
298.15 K, x2 = 0.6975 | 759.88 ± 1.5 | 1.653 ± 0.035
298.15 K, x2 = 0.7959 | 754.54 ± 1.5 | 1.516 ± 0.033
298.15 K, x2 = 0.8984 | 749.53 ± 1.5 | 1.397 ± 0.03
303.15 K, x2 = 0.0998 | 803.68 ± 1.6 | 3.91 ± 0.083
303.15 K, x2 = 0.2005 | 793.46 ± 1.6 | 3.144 ± 0.067
303.15 K, x2 = 0.302 | 784.02 ± 1.6 | 2.559 ± 0.054
303.15 K, x2 = 0.3991 | 776.11 ± 1.6 | 2.168 ± 0.046
303.15 K, x2 = 0.4989 | 768.69 ± 1.5 | 1.878 ± 0.04
303.15 K, x2 = 0.5994 | 762.06 ± 1.5 | 1.655 ± 0.035
303.15 K, x2 = 0.6975 | 756.19 ± 1.5 | 1.498 ± 0.032
303.15 K, x2 = 0.7959 | 750.85 ± 1.5 | 1.38 ± 0.03
303.15 K, x2 = 0.8984 | 745.85 ± 1.5 | 1.276 ± 0.027
308.15 K, x2 = 0.0998 | 800.09 ± 1.6 | 3.381 ± 0.072
308.15 K, x2 = 0.2005 | 789.82 ± 1.6 | 2.745 ± 0.058
308.15 K, x2 = 0.302 | 780.35 ± 1.6 | 2.26 ± 0.048
308.15 K, x2 = 0.3991 | 772.42 ± 1.6 | 1.935 ± 0.041
308.15 K, x2 = 0.4989 | 765 ± 1.5 | 1.69 ± 0.036
308.15 K, x2 = 0.5994 | 758.35 ± 1.5 | 1.5 ± 0.032
308.15 K, x2 = 0.6975 | 752.48 ± 1.5 | 1.364 ± 0.029
308.15 K, x2 = 0.7959 | 747.14 ± 1.5 | 1.262 ± 0.027
308.15 K, x2 = 0.8984 | 742.15 ± 1.5 | 1.172 ± 0.025
313.15 K, x2 = 0.0998 | 796.48 ± 1.6 | 2.94 ± 0.062
313.15 K, x2 = 0.2005 | 786.16 ± 1.6 | 2.412 ± 0.051
313.15 K, x2 = 0.302 | 776.66 ± 1.6 | 2.009 ± 0.043
313.15 K, x2 = 0.3991 | 768.72 ± 1.5 | 1.736 ± 0.037
313.15 K, x2 = 0.4989 | 761.28 ± 1.5 | 1.528 ± 0.033
313.15 K, x2 = 0.5994 | 754.63 ± 1.5 | 1.365 ± 0.029
313.15 K, x2 = 0.6975 | 748.76 ± 1.5 | 1.247 ± 0.027
313.15 K, x2 = 0.7959 | 743.42 ± 1.5 | 1.158 ± 0.025
313.15 K, x2 = 0.8984 | 738.43 ± 1.5 | 1.08 ± 0.023
318.15 K, x2 = 0.0998 | 792.81 ± 1.6 | 2.573 ± 0.055
318.15 K, x2 = 0.2005 | 782.46 ± 1.6 | 2.134 ± 0.045
318.15 K, x2 = 0.302 | 772.94 ± 1.6 | 1.795 ± 0.038
318.15 K, x2 = 0.3991 | 764.98 ± 1.5 | 1.566 ± 0.033
318.15 K, x2 = 0.4989 | 757.54 ± 1.5 | 1.388 ± 0.03
318.15 K, x2 = 0.5994 | 750.88 ± 1.5 | 1.247 ± 0.027
318.15 K, x2 = 0.6975 | 745.01 ± 1.5 | 1.145 ± 0.025
318.15 K, x2 = 0.7959 | 739.67 ± 1.5 | 1.066 ± 0.023
318.15 K, x2 = 0.8984 | 734.71 ± 1.5 | 0.999 ± 0.022
323.15 K, x2 = 0.0998 | 789.12 ± 1.6 | 2.266 ± 0.048
323.15 K, x2 = 0.2005 | 778.74 ± 1.6 | 1.896 ± 0.04
323.15 K, x2 = 0.302 | 769.19 ± 1.5 | 1.612 ± 0.034
323.15 K, x2 = 0.3991 | 761.22 ± 1.5 | 1.417 ± 0.03
323.15 K, x2 = 0.4989 | 753.77 ± 1.5 | 1.265 ± 0.027
323.15 K, x2 = 0.5994 | 747.11 ± 1.5 | 1.143 ± 0.024
323.15 K, x2 = 0.6975 | 741.23 ± 1.5 | 1.054 ± 0.023
323.15 K, x2 = 0.7959 | 735.9 ± 1.5 | 0.986 ± 0.021
323.15 K, x2 = 0.8984 | 730.96 ± 1.5 | 0.928 ± 0.02
328.15 K, x2 = 0.0998 | 785.39 ± 1.6 | 2.006 ± 0.043
328.15 K, x2 = 0.2005 | 774.97 ± 1.6 | 1.694 ± 0.036
328.15 K, x2 = 0.302 | 765.4 ± 1.5 | 1.454 ± 0.031
328.15 K, x2 = 0.3991 | 757.43 ± 1.5 | 1.288 ± 0.027
328.15 K, x2 = 0.4989 | 749.97 ± 1.5 | 1.158 ± 0.025
328.15 K, x2 = 0.5994 | 743.31 ± 1.5 | 1.051 ± 0.022
328.15 K, x2 = 0.6975 | 737.44 ± 1.5 | 0.974 ± 0.021
328.15 K, x2 = 0.7959 | 732.12 ± 1.5 | 0.915 ± 0.02
328.15 K, x2 = 0.8984 | 727.21 ± 1.5 | 0.864 ± 0.019
333.15 K, x2 = 0.0998 | 781.62 ± 1.6 | 1.785 ± 0.038
333.15 K, x2 = 0.2005 | 771.18 ± 1.6 | 1.522 ± 0.032
333.15 K, x2 = 0.302 | 761.59 ± 1.5 | 1.317 ± 0.028
333.15 K, x2 = 0.3991 | 753.6 ± 1.5 | 1.175 ± 0.025
333.15 K, x2 = 0.4989 | 746.14 ± 1.5 | 1.063 ± 0.023
333.15 K, x2 = 0.5994 | 739.49 ± 1.5 | 0.97 ± 0.021
333.15 K, x2 = 0.6975 | 733.61 ± 1.5 | 0.902 ± 0.019
333.15 K, x2 = 0.7959 | 728.31 ± 1.5 | 0.851 ± 0.018
333.15 K, x2 = 0.8984 | 723.43 ± 1.5 | 0.807 ± 0.017
